Experimental data as given in US7250428B2, “Cetylpyridinium salt of an anti-inflammatory agent and pharmaceutical compositions containing it” (Aziende Chimiche Riunite Angelini Francesco A.C.R.A.F. …, priority 2003, dated 2007).

Assay: stability in the presence of water
Type: physicochemical

CCCCCCCCCCCCCCCC[n+]1ccccc1.O=C([O-])Cc1ccccc1Nc1c(Cl)cccc1Cl [cetylpyridinium salt of diclofenac, cetylpyridinium (1-hexadecylpyridinium) salt of diclofenac]
stability in the presence of water: virtually infinite
